Compound | melting point [°C]
CC(C)(C)C(F)(F)c1ccc(C[C@@H](NC(=O)c2ccc(F)c3ccccc23)[C@@H](O)c2cccc(Cl)c2)cc1 (racemic) | 104 to 106
COc1ncc(S(C)(=O)=O)cc1CCC(=O)c1ccc(Cl)c(Cl)c1 | 145 to 146
COc1ccc2nc(C)c(CCCl)c(=O)n2c1 | 150
CCc1cccc(CC)c1NC(=S)NC(C)C | 108 to 110
COc1cccc([C@H]2O[C@H](CC(=O)NCCCC(=O)O)C(=O)N(CC(C)(C)CO)c3ccc(Cl)cc32)c1OC | 111 to 113
NC(=O)N1CC(Oc2ccc(C(F)(F)F)cc2)C1 | 176 to 178
CC(C)Oc1c(C(=O)O)sc2c1CN(C(=O)OC(C)(C)C)CC2 | 128 to 129
COc1cc(OC)nc(Oc2cccc(F)c2)n1 | 45
CCCCOC(=O)c1cc(Cl)ccc1N | 37 to 39
COc1cc(CCNC(=O)[C@@H](NC(=O)OC(C)(C)C)C(C)C)ccc1OCc1ccccc1 | 115 to 118
CCCCCCCCCCCCCCCCCCOc1ccc(C(C)=O)cc1 | 69 to 70
CCCCCCCCCCCCCCCCS(=O)(=O)OCc1cc(OC)c(OC)cc1[N+](=O)[O-] | 81 to 82
Cc1oc(C)c(C(=O)OC2CC(C)(C)N(CC#N)C(C)(C)C2)c1C | 88 to 89
OCCc1c(Br)cc(Br)c2cccnc12 | 128 to 131
O=C/C=C/c1ccc(Cl)c(Cl)c1 | 92 to 94
O=S(=O)(C=Cc1ccccc1)On1nnc2ccccc21 | 102 to 103
O=C(NN=Cc1ccccc1)c1ccc(O)cc1 | 226
C[Si](C)(C)OC(C(N)=O)(C(N)=O)c1ccc(Cl)c(Cl)c1 | 156
CC(C)(C)c1ccc(C(N)=CC#N)cc1 | 74 to 75
Cc1cc(CCCCCOc2ccc(C3=NCCO3)cc2C(F)F)on1 | 80 to 89

Compound | melting point [°C]
COC1=C(Cl)C(Cl)C(C(=O)C2(C3=CCCCC3)C=CC(OC)=C(Cl)C2Cl)(C2=CCCCC2)C=C1 (stereo not drawn) | 126 to 129
CC(=Cc1ccc(N(C)C)cc1C)[N+](=O)[O-] | 75 to 76
O=C(O)C1=Cc2c(cc(Cl)c(Cl)c2Cl)OC1C(F)(F)F (stereo not drawn) | 236 to 239
COC(=O)c1ccn2ncnc2c1 | 125 to 126
CCCCCCCCN(C=O)C1CC(C)(C)N(C=CC(=O)OCC)C(C)(C)C1 | 58 to 60
C=C(C(=O)c1ccc(-n2ccnc2)nc1)c1ccc(F)cc1F | 115 to 116
CC1NCC(CO)CC1OC(=O)c1ccncc1 (stereo not drawn) | 126 to 128
Cc1cccc2[nH]cnc12 | 141 to 145
Nc1nc(O)c2ncn(C=C3CC3CO)c2n1 (stereo not drawn) | 218 to 221
Cc1ccc2sc(C(C)(C)C)nc2c1 | 55 to 57
CC(C)(C)c1nc2cc(N3CCCCC3)c(NC(N)=S)cc2s1 | 228 to 232
CCc1c(Cl)c(Oc2ncc(C(F)(F)F)cc2Cl)nn1C(=O)NC | 88 to 89
CS(=O)(=O)c1ccc(Oc2ccc(OC(F)(F)C(Cl)Cl)cc2)cc1 | 67 to 70
CS(=O)(=O)OCCc1cc(Nc2ncc3c(n2)-c2ccccc2[C@H](c2ccccc2F)C3)ccc1F | 99 to 100
CCCn1c(COCC)nc2c(N)nc3ccc(OCCNC(=O)C4CCCO4)cc3c21 (stereo not drawn) | 202 to 204
Oc1cccc(-c2cnc3cnc(-c4cccc(O)c4)nc3c2)c1 | 264 to 265
O=C1c2c(ccc3c2OCCO3)S(=O)(=O)N1CCCCO | 119 to 122
CC#Cc1cc(Cl)nc(Nc2ccccc2)n1 | 121 to 124
CCCCCCCCCCNC(=O)CCCO | 74 to 75
CCCc1nn(-c2ccc(C(F)(F)F)cn2)cc1CCCOc1cc(CCC(=O)O)n(C)n1 | 80 to 81

Compound | melting point [°C]
Cc1cc(C)c2c(c1C)OC(C)(C)C2=O | 99 to 101
C[C@]12CC[C@@H]3c4ccc(O)cc4CC[C@H]3[C@@H]1CCC2=C(F)F | 154 to 156
O=C(c1ccc2nonc2c1)N1CCCCC1 | 88.5 to 90.5
c1cncc(-c2nncs2)c1 | 78 to 79
COC(=O)[C@H](Cc1ccccc1)NC(=S)Cc1ccc(C)cc1 | 84 to 86
CN[C@@H]1CCN(c2ccc3c(NC(=O)CC4CCCCC4)c(Cl)ccc3n2)C1 | 169
CSc1nccn1N=Cc1cc(C(C)(C)C)c(O)c(C(C)(C)C)c1 | 181 to 183
CNS(=O)(=O)c1cn(C)c2cc(F)ccc2c1=O | 255 to 257
N#Cn1c(=O)c2ccccc2n(CCCCN2CCC(OC(c3ccccc3)c3ccccc3)CC2)c1=O | 106 to 107
COC(=O)C(NC(C)=O)C(=O)OCCCl (stereo not drawn) | 81 to 82
CCCCOC(=O)c1ccc(NC(=NC(=O)OCC)SC)cc1 | 67 to 68
COc1cc(OC)nc(-n2c(C(F)(F)F)nc3cc(C)ccc32)n1 | 93 to 96
O=c1ccccn1C1=CC(CF)(CF)Oc2ccc(C(F)(F)C(F)(F)C(F)(F)F)cc21 | 101 to 104
CC(C)(C)OC(=O)Nc1ccc(I)cc1N | 127 to 130
COc1ccc(NC(=O)Nc2ccc(Cl)c(Cl)c2)cc1N | 202 to 204
CN1CS(=O)c2cccc(F)c21 (stereo not drawn) | 122 to 124
O=C(O)COc1ccc2c(c1)sc1cc3ccccc3c(-c3ccc(OC(Cc4ccccc4)C(=O)O)cc3)c12 (stereo not drawn) | 191 to 201
Oc1cc2[nH]c3c(O)c(O)ccc3c2cc1O | > 280

Next, values leading:

melting point [°C] | Compound
94 to 95 | CCOC(=O)c1sc2cc(OCc3cccnc3)ccc2c1Sc1ccccc1
171 to 172 | CCC(=S)NC[C@H]1CN(c2ccc(N3CCN(C(=O)COc4ccccc4)CC3)c(F)c2)C(=O)O1
162 to 164 | CC1(CC(=O)O)OCCc2nc(-c3ccc(Cl)cc3)sc21 (stereo not drawn)
82 to 84 | CNc1ccc(CCc2ccc(OC)c(OC)c2)cc1
125 | COCCOC(=O)OC[C@@H](O)[C@@H]1CC(c2ccc(-c3ccc(N4C[C@H](Cn5ccnn5)OC4=O)cc3F)cn2)=NO1
126 to 128 | COc1ccc(-c2noc3cc(OC)ccc23)c(C)c1
67 to 69 | C=CCN1Cc2cscc2Nc2ccccc21
260 to 263 | O=c1oc(=O)c2ccsc2c2sccc12
178 to 180 | OC(=S)c1ccccc1-c1ccccc1
> 300 | Oc1ncnc2[nH]c(-c3ccc4ccccc4c3)cc12
130 | COc1ccc(S(=O)(=O)C2(C(=O)O)CCN(Cc3cccc(OC)c3)CC2)cc1
139 to 141 | COc1cccc2c1nc(-c1c(F)cccc1F)n2Cc1ccccc1
265 | CC(=O)Nc1[nH]cc(-c2ccc(NS(=O)(=O)c3cccc(Cl)c3Cl)cc2)c1C(N)=O
129 to 130 | CSc1cc2cc(-c3ccccc3)ccc2cc1O
240 | Fc1cccc(-c2ncc(-c3cnc(-c4ccccc4)[nH]3)cn2)c1
104 to 105 | COC(=O)c1[nH]c2c(C)ccc(C)c2c1C=NOCc1ccccc1
178 to 180 | CN(Cc1cc(C(F)(F)F)cc(C(F)(F)F)c1)C(=O)c1c(-c2ccc(F)cc2)c2c(c(=O)n1C)CNCC2
227 to 228 | O=c1[nH]c2ccccc2c(=O)cc1Nc1ccccc1
229 to 230 | Nc1ncc(-c2ccc(=O)n(Cc3ccccc3)n2)c(-c2ccccc2)n1
190 to 192 | N#Cc1cc(C(F)(F)F)ccc1Oc1ccc([N+](=O)[O-])c(C(=O)O)c1
209 to 210 | CS(=O)(=O)c1ccc(COc2cccc(C(=O)Nc3ccc(C#N)cc3)c2)cc1
276 | Cc1ccc(C2CN(c3cc4nc5c(cc4cc3F)c(=O)c(C(=O)O)cn5C)CCN2)cc1C (racemic)
219 to 220 | CCCCc1nc2c(N)nc3cc(-c4ccc(C(C)(C)C)cc4)ccc3c2n1CC(C)C

melting point [°C] | Compound
178 to 180 | CN1CCN(c2cccc3c2C[C@H](NC(=O)c2ccc(N4CCCCC4)cc2)CO3)CC1
98 to 100 | CC(O)(CCCl)c1ccc(-c2ccc(Cl)cc2)cc1 (stereo not drawn)
188 to 190 | O=C1NCCc2c1c1cccc(OCc3ccccc3)c1n2COCc1ccccc1
228 | Cc1ccc(C(=O)Nc2ccc3ccc(Cl)nc3n2)cc1
122 to 123 | O=C1CC(c2ccccc2)Cc2c1ccn2Cc1ccccc1 (stereo not drawn)
106 to 107 | COc1ccc(-c2cc3c(OC)cc(OC)cc3nc2OC)cc1
186 | CCCOc1ccc(-c2ccc(=O)[nH]n2)cc1OC
202 to 203 | Cc1c(C)c2ccc(CCCCCN3CCN(c4cccc(Cl)c4Cl)CC3)nc2[nH]c1=O
228 to 235 | CCN1C(=O)CCCc2ccc(Nc3ncc(Cl)c(Nc4c(F)cccc4C(=O)NC)n3)cc21
127 to 130 | CC(C)(c1ccc2ncccc2c1)n1nnc2ccc(-c3ccc(C(N)=O)c(F)c3)nc21
197 to 198 | Cn1c(C#N)ccc1-c1ccc2c(c1)C(C)(c1cccs1)OCC(=O)N2 (stereo not drawn)
158 to 166 | O=C1N(CC2CCCCO2)c2ccccc2C12COc1cc3c(cc12)OCCO3 (stereo not drawn)
115 | COC1(c2cccc(S(=O)(=O)c3ccc4c(c3)C(C)(C)S(=O)(=O)C4(C)C)c2)CCOCC1
168 to 170 | Cc1ccccc1-c1c(C(=O)NCc2cc(C(F)(F)F)cc(C(F)(F)F)c2)n(C)c(=O)c2ccccc12
168 to 170 | CS(=O)(=O)c1ccc(-c2oc3ccccc3c(=O)c2-c2ccc(Br)cc2)cc1
272 to 274 | O=C(/C=C/c1ccc([N+](=O)[O-])cc1)c1cc2ccccc2oc1=O
108 | Oc1ccc(CCc2cccc(O)c2)cc1
141 to 143 | CC(C)C(NS(=O)(=O)c1ccc(-c2cccc(CNC(=O)c3nc4ccccc4c(=O)[nH]3)c2)cc1)C(=O)O (stereo not drawn)
260 to 265 | O=c1[nH]c2cc(Cl)cc(Cl)c2c(=O)n1Cc1ccccc1
177 to 179 | CN(C)C(=O)COC(=O)c1cc(-c2ccccc2)c(=O)n2c1-c1ccccc1C2
224 to 226 | O=c1[nH]c2ccc3c(c2[nH]1)OC(CNCCCCc1ccccc1)CO3 (stereo not drawn)
75 | N#Cc1ccc(CNC(c2ccccc2)c2ccccc2)cc1

Reference: a melting point compilation (Tetko et al.; mined from patent text by program, amines drawn as free bases though some values may be those of a salt)
